Assay results from patent publication US20100189648A1, “INHIBITORS FOR DISRUPTING THE INTERACTION OF UBIQUITINATION RELATED ENZYMES AND USES THEREOF” (priority 2006, published 2010).
In brackets after ≈: the same amount, converted by molar mass. Read-outs that look alike come from different tables or passages of the source.

Key:
Format in all cases: cell-based, human
[1] = system: SMMC-7721; assay: MTT survival assay, liver cancer cell line (SMMC-7721); details: SMMC-7721
Protocol: (§1) The effect of the above identified compounds on anti-tumor activity in human carcinoma cells was determined by the MTT survival assay. The MTT assay is a commonly used method in evaluation of cell survival, based on the ability of viable cells to convert MTT (MTT, Sigma, Cat No. 044K5307), a soluble tetrazolium salt [3-(4,5-dimethylthuazole-2-yl)-2,5 diphenyl tetrazolium bromide], into an insoluble formazan precipitate, which is quantitated by spectrophotometry following solubilization in dimethyl sulfoxide (DMSO).
(§2) In brief, different carcinoma cells were treated with negative control, various test articles at different concentration, and positive control (DDP), in 96-well tissue culture dishes. Each test article at different concentration is repeated 3 times.
(§3) Different carcinoma cells were diluted with 10% FBS and RPM1640 or MEM media to a concentration of 3-5×10^4 per ml suspension. 100 microliter of cells were incubated in each well in 96-well tissue culture dishes at 37 C. The cells were incubated at 37 C on the first day. On the second day, media supernatant was removed and replaced with media and different concentration of test articles (100 microliter in each well). Three Negative control wells and three positive control (DDP) wells were also included. The 96-well plate were incubated at 37 C for another 68 hours. After 68 hours, supernatant of each well was removed. 100 microliter of 1 mg/ml MTT diluted in PBS was injected into each well. The cells were incubated at 37 C for another 4 hours. The cells were then solubilized in 150 microliter DMSO, mixed for 10 minutes and absorbance readings were taken using Microplate reader Bio-Rad Model 550 at 570 nm. IR (cell growth inhibition rate) % was calculated as (OD570 of negative control-OD570 with test article)/OD570 of negative control. IC50 (cell 50% inhibition concentration) at 95% confidence level was calculated with Bliss method.

[2] = system: U251; assay: MTT survival assay, glioma cell line (brain tumor U251); details: U251 (first table)
Protocol: as §1, §2, §3

[3] = system: A459; assay: MTT survival assay, lung cancer cell line (A459); details: A459
Protocol: as §1, §2, §3

[4] = system: MCF-7; assay: MTT survival assay, breast cancer cell line (MCF-7); details: for IC50: Homo sapiens
Protocol: as §1, §2, §3

[5] = system: SKOV3; assay: MTT survival assay, ovarian cancer cell line (SKOV3); details: SKOV3 (first table)
Protocol: as §1, §2, §3

[6] = system: Hela cells; assay: MTT survival assay, cervical cancer line (Hela cells)
Protocol: as §1, §2, §3

COc1ccccc1NC(=O)CSc1nc(-c2ccccc2)nc2ccccc12 [Mol 44]
IR (%) ([1]; 1.56 μg/ml): 37.6% | OD(A570 nm) ([1]; 1.56 μg/ml): 0.275 ± 0.004 | IR (%) ([1]; 3.125 μg/ml): 27.2% | OD(A570 nm) ([1]; 3.125 μg/ml): 0.321 ± 0.088 | IR (%) ([1]; 6.25 μg/ml): 38.3% | OD(A570 nm) ([1]; 6.25 μg/ml): 0.272 ± 0.019 | IR (%) ([1]; 12.5 μg/ml): 11.1% | OD(A570 nm) ([1]; 12.5 μg/ml): 0.392 ± 0.039 | IR (%) ([1]; 25 μg/ml): 15.4% | OD(A570 nm) ([1]; 25 μg/ml): 0.373 ± 0.019 | IR (%) ([1]; 50 μg/ml): 21.6% | OD(A570 nm) ([1]; 50 μg/ml): 0.345 ± 0.025 | IC50 ([2]; Homo sapiens, U-251, Bliss method, unit not printed (concentrations in μg/ml), read-out: IC50 (95% confidence level)): 129 µg/mL (≈ 322 µM) | IR (%) ([2]; 1.56 μg/ml): 9.9% | OD(A570 nm) ([2]; 1.56 μg/ml): 0.790 ± 0.086 | IR (%) ([2]; 3.125 μg/ml): 19.6% | OD(A570 nm) ([2]; 3.125 μg/ml): 0.705 ± 0.061 | IR (%) ([2]; 6.25 μg/ml): 1.2% | OD(A570 nm) ([2]; 6.25 μg/ml): 0.866 ± 0.090 | IR (%) ([2]; 12.5 μg/ml): 7.5% | OD(A570 nm) ([2]; 12.5 μg/ml): 0.811 ± 0.050 | IR (%) ([2]; 25 μg/ml): 15.9% | OD(A570 nm) ([2]; 25 μg/ml): 0.737 ± 0.067 | IR (%) ([2]; 50 μg/ml): 24.9% | OD(A570 nm) ([2]; 50 μg/ml): 0.659 ± 0.047 | IR (%) ([3]; 1.56 μg/ml): 0.6% | OD(A570 nm) ([3]; 1.56 μg/ml): 0.634 ± 0.009 | IR (%) ([3]; 3.125 μg/ml): −23.3% | OD(A570 nm) ([3]; 3.125 μg/ml): 0.786 ± 0.048 | IR (%) ([3]; 6.25 μg/ml): −6.8% | OD(A570 nm) ([3]; 6.25 μg/ml): 0.680 ± 0.015 | IR (%) ([3]; 12.5 μg/ml): 8.1% | OD(A570 nm) ([3]; 12.5 μg/ml): 0.586 ± 0.051 | IR (%) ([3]; 25 μg/ml): 21.0% | OD(A570 nm) ([3]; 25 μg/ml): 0.504 ± 0.046 | IR (%) ([3]; 50 μg/ml): 42.3% | OD(A570 nm) ([3]; 50 μg/ml): 0.368 ± 0.039 | IC50 ([3]; Homo sapiens, Bliss method, unit not printed (concentrations in μg/ml), read-out: IC50 (95% confidence level)): 150 µg/mL (≈ 374 µM) | IR (%) ([4]; 1.56 μg/ml): 13.3% | OD(A570 nm) ([4]; 1.56 μg/ml): 0.787 ± 0.176 | IR (%) ([4]; 3.125 μg/ml): 12.8% | OD(A570 nm) ([4]; 3.125 μg/ml): 0.811 ± 0.109 | IR (%) ([4]; 6.25 μg/ml): 10.2% | OD(A570 nm) ([4]; 6.25 μg/ml): 0.791 ± 0.151 | IR (%) ([4]; 12.5 μg/ml): 12.4% | OD(A570 nm) ([4]; 12.5 μg/ml): 0.791 ± 0.151 | IR (%) ([4]; 25 μg/ml): 34.9% | OD(A570 nm) ([4]; 25 μg/ml): 0.587 ± 0.030 | IR (%) ([4]; 50 μg/ml): 41.6% | OD(A570 nm) ([4]; 50 μg/ml): 0.527 ± 0.035 | IC50 ([4]; MCF7, 95% confidence limits of IC50, read-out: IC50 (95% confidence level), interval): 71.3 to 551 µg/mL (≈ 178 to 1370 µM) | IC50 ([4]; MCF7, Bliss method, unit not printed (concentrations in μg/ml), read-out: IC50 (95% confidence level)): 145 µg/mL (≈ 362 µM) | IC50 ([5]; Homo sapiens, SK-OV-3, Bliss method, unit not printed (concentrations in μg/ml), read-out: IC50 (95% confidence level)): 60 µg/mL (≈ 149 µM) | IR (%) ([5]; 1.56 μg/ml): 27.9% | OD(A570 nm) ([5]; 1.56 μg/ml): 0.505 ± 0.029 | IR (%) ([5]; 3.125 μg/ml): 23.9% | OD(A570 nm) ([5]; 3.125 μg/ml): 0.533 ± 0.017 | IR (%) ([5]; 6.25 μg/ml): 23.0% | OD(A570 nm) ([5]; 6.25 μg/ml): 0.539 ± 0.023 | IR (%) ([5]; 12.5 μg/ml): 25.1% | OD(A570 nm) ([5]; 12.5 μg/ml): 0.525 ± 0.035 | IR (%) ([5]; 25 μg/ml): 39.1% | OD(A570 nm) ([5]; 25 μg/ml): 0.426 ± 0.008 | IR (%) ([5]; 50 μg/ml): 52.4% | OD(A570 nm) ([5]; 50 μg/ml): 0.333 ± 0.008 | IR (%) ([6]; 0.07 μg/ml): 19.3% | OD(A570 nm) ([6]; 0.07 μg/ml): 0.599 ± 0.109 | IR (%) ([6]; 0.21 μg/ml): 11.8% | OD(A570 nm) ([6]; 0.21 μg/ml): 0.655 ± 0.007 | OD(A570 nm) ([6]; 0.62 μg/ml): 0.765 ± 0.200 | IR (%) ([6]; 1.85 μg/ml): 0.8% | OD(A570 nm) ([6]; 1.85 μg/ml): 0.737 ± 0.113 | IR (%) ([6]; 5.56 μg/ml): 9.7% | OD(A570 nm) ([6]; 5.56 μg/ml): 0.671 ± 0.044 | IR (%) ([6]; 16.67 μg/ml): 7.4% | OD(A570 nm) ([6]; 16.67 μg/ml): 0.688 ± 0.045
